Data published in ChEMBL document CHEMBL1201862, “PubChem BioAssay data set” (2004).
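48-hour exposure; five concentrations; linearly interpolated endpoints. At the GI50, growth is halved.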 Active and inactive are the calls of the source. No stated cut-off is given here; in the data, active = GI50 up to about 1.1 µM and inactive = higher. Non-standard residues stand in square brackets, D forms with d. Residues, ends and D or L forms follow the SMILES beside them. ξ: configuration not given here. *: point of attachment. NMeY = CN[C@@H](Cc1ccc(O)cc1)C(=O)O; Cbz = O=C(OCc1ccccc1)*; ξA = CC(N)C(=O)O

Key:
Test in all cases: NCI anticancer screen, dose series, 48 h
EKVX = test system: EKVX
786-0 = test system: 786-0
HOP-92 = test system: HOP-92
RXF 393 = test system: RXF 393
LOX IMVI = test system: LOX IMVI
CAKI-1 = test system: CAKI-1
UO-31 = test system: UO-31
MCF7 = test system: MCF7
HT-29 = test system: HT-29
OVCAR-3 = test system: OVCAR-3
NCI-H460 = test system: NCI-H460
SN12C = test system: SN12C
SF-268 = test system: SF-268
HCT-15 = test system: HCT-15
SK-OV-3 = test system: SK-OV-3
UACC-62 = test system: UACC-62
HL-60 = test system: HL-60
SNB-19 = test system: SNB-19
SR = test system: SR
PC-3 = test system: PC-3

Measured: GI50

O=C(O)CSCC(=O)c1ccccc1
inactive: EKVX > 100 µM | 786-0 > 100 µM | HOP-92 > 100 µM | RXF 393 > 100 µM | LOX IMVI > 100 µM | CAKI-1 > 100 µM | UO-31 > 100 µM | MCF7 > 100 µM | HT-29 > 100 µM | OVCAR-3 > 100 µM | NCI-H460 > 100 µM | SN12C > 100 µM | SF-268 > 100 µM | SK-OV-3 > 100 µM | UACC-62 > 100 µM | HL-60 > 100 µM | SNB-19 > 100 µM | SR > 100 µM | PC-3 > 100 µM
> 100 µM: HCT-15

COc1ccc(C[C@@H](C(=O)NCC(N)=O)N(C)C(=O)[C@@H]2CCCN2C(=O)[C@H](CC(C)C)NC(=O)C(C)NC(=O)OCc2ccccc2)cc1 (stereo not given in full) (Cbz-[ξA]LP[NMeY](Me)G-NH2)
inactive: EKVX > 100 µM | 786-0 > 100 µM | HOP-92 > 100 µM | RXF 393 > 100 µM | LOX IMVI > 100 µM | CAKI-1 > 100 µM | UO-31 > 100 µM | MCF7 > 100 µM | HT-29 > 100 µM | OVCAR-3 > 100 µM | NCI-H460 > 100 µM | SN12C > 100 µM | SF-268 > 100 µM | SK-OV-3 > 100 µM | UACC-62 > 100 µM | HL-60 > 100 µM | SNB-19 > 100 µM | SR > 100 µM | PC-3 > 100 µM
> 100 µM: HCT-15

Cc1nc(N)nc(N)c1-c1ccc(Cl)c(Cl)c1 [METOPRINE]
active: 786-0 0.273 µM | LOX IMVI 0.054 µM | MCF7 0.826 µM | HT-29 0.258 µM | NCI-H460 0.0239 µM | SN12C 0.664 µM | SF-268 1 µM | UACC-62 0.355 µM | HL-60 0.13 µM | SR 0.308 µM | PC-3 0.0785 µM
0.145 µM: HCT-15
inactive: EKVX 4.47 µM | HOP-92 7.6 µM | RXF 393 13.2 µM | CAKI-1 5.18 µM | UO-31 1.15 µM | OVCAR-3 3.75 µM | SK-OV-3 3.48 µM | SNB-19 2.69 µM
